The source of these data is patent US20040110758A1, “4,6-Diaminosubstituted-2-[oxy or aminoxy]-[1,3,5]triazines as protein tyrosine kinase inhibitors” (priority 2002, published 2004).

Assay [1] has as its target T1, KDR (Homo sapiens, UniProt P35968). Description: KDR Cell-Based Assay (VEGF-stimulated MAP kinase activation in HUVEC). Also noted: which express endogenous Flk-1(KDR); endogenous in cells; host or cells: HUVEC (human umbilical vein endothelial cells). The settings on record: compounds 30 minutes prior to 25 ng/ml VEGF for 10 minutes, phosphorylated MAP kinase immunoblot. How it is done:
KDR Cell-Based Assay. To determine the effect of the test compounds on KDR function in cells, VEGF-stimulated MAP kinase activation in human umbilical vein endothelial cells (HUVEC), which express endogenous Flk-1(KDR), was examined. HUVECs were grown to confluence in EMB-2 endothelial cell media (Biowhittaker Inc., Walkersville, Md.) at 37° C. and 5% CO2. Confluent, quiescent HUVECs were treated with the test compounds 30 minutes prior to stimulation with 25 ng/ml VEGF for 10 minutes at 37° C. These cells were then lysed in HNTG buffer (50 mM HEPES, 150 mM NaCl, 1% triton-X-100, 1.5 mM MgCl2, 10% glycerol, 10 mM NaF, 1 mM EDTA, 10 mM sodium pyrophosphate, 1 uM PMSF and 250 uM NaVO4). Cell lysates (40 ug total protein) were separated by SDS-PAGE and transferred to nitrocellulose. Immunoblots were probed with a polyclonal antibody to phosphorylated MAP kinase (Cell Signaling Technologies, Woburn, Mass.) and alkaline phosphatase conjugated secondary antibody (Biorad Labs, Hercules, Calif.). Immunoblot detection was done by measuring the fluorescent product of the alkaline phosphatase reaction with the substrate 9H-(1,3-dichloro-9,9-dimethylacridin-2-one-7-yl) phosphate, diammonium salt (DDAO phosphate) (Molecular Probes, Eugene, Oreg.) using a Molecular Dynamics Typhoon Imaging system (Molecular Dynamics, Sunnyvale, Calif.). Quantitation of DDAO phosphate signal and IC50 determinations were done with Molecular Dynamics ImageQuant software.
Target sequence in this assay (P35968 20-1356): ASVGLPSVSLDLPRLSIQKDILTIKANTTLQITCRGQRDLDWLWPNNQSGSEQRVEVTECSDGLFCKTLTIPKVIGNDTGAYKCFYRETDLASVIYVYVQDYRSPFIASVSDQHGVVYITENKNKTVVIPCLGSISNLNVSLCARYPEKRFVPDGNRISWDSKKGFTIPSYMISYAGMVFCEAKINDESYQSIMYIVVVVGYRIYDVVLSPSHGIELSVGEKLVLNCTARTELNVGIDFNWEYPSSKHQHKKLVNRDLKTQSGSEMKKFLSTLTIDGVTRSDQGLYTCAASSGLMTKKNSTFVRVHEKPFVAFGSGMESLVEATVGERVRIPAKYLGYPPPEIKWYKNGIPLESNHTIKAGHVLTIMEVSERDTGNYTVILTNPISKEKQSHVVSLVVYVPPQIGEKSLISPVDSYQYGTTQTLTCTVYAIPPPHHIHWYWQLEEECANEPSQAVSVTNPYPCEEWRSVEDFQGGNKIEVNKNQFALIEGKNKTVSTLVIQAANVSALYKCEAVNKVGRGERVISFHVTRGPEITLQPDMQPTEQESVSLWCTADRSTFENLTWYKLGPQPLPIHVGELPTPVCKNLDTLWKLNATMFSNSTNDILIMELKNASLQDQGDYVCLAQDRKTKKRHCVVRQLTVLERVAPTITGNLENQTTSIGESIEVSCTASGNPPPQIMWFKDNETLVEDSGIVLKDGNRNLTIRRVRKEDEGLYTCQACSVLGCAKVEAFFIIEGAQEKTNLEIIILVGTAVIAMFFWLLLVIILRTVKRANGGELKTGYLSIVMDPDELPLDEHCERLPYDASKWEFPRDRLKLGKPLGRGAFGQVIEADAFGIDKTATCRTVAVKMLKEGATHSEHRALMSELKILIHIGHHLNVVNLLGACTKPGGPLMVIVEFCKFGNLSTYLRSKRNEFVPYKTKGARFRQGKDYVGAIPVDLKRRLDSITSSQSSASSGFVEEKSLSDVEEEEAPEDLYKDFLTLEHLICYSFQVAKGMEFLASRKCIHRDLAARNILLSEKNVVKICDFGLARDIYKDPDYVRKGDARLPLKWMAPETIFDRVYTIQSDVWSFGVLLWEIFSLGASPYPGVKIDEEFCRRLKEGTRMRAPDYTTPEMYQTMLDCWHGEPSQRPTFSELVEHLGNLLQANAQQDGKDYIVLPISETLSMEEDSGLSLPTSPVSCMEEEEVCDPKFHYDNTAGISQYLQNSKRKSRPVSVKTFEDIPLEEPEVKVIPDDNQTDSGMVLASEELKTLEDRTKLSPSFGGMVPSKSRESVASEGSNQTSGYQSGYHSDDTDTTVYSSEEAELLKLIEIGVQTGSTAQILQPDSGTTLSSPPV

Assay [2] deals with T1, KDR. Description: KDR Enzymatic Assay (fluorescence polarization competition immunoassay). The settings on record: for IC50: 1.6 nM KDR, 10 μM ATP, 10 μg/ml poly(E4,Y), averages of three independent measurements, read-out: IC50 Enzyme; for protein tyrosine kinase (KDR) inhibition, potency in words: text commentary on Table 1. Format: biochemical. The method, then: KDR Enzymatic Assay. A fluorescence polarization competition immunoassay was used to determine the compound potency for KDR. The assay was performed in black 96-well microplates (LJL BioSystems). The assay buffer used was 100 mM HEPES, pH 7.5, 1 mM DTT, 0.01% (v/v) Tween-20. Compounds were diluted in assay buffer containing 4% DMSO just prior to the assay. […] The kinase reaction was initiated by adding 2 μl of 8 nM KDR in assay buffer.
The plates were incubated at room temperature for 5 min. At the end of the incubation, the reaction was quenched with 1.2 μl of 50 mM EDTA. Following a 5-min incubation, each well received 10 μl of a 1:1:3 mixture of anti-phosphotyrosine antibody, 10×, PTK green tracer, 10× (vortexed), FP dilution buffer, respectively (all from PanVera, cat. # P2837). The plate was covered, incubated for 30 min at room temperature and the fluorescence polarization was read on an ANALYST™ HT Assay Detection System (LJL Biosystems, Sunnyvale, Calif.). The instrument settings were: 485 nm excitation filter; 530 nm emission filter; Z height: middle of well; G factor: 0.93. […] The IC50 values reported are the averages of three independent measurements.
Target sequence in this assay (P35968 20-1356, species assumed): as the sequence (P35968 20-1356) above
(In fluorescence polarisation assays a small probe gives low polarisation when free and higher when bound to something large.)

Where only a bound is given, the exact number is not on record here.

Usually IC50 stands for the point on the concentration scale where inhibition reaches its midpoint. In the case of `CCN(Cc1ccccc1)c1nc(O)nc(Nc2ccc3ncsc3c2)n1` [Example 1, 4-(Benzothiazol-6-ylamino)-6-(N-ethylbenzylamino)-[1,3,5]triazin-2-ol], the IC50 against KDR [1] and on KDR [2] was less than 1000 nM each time.
On to `Oc1nc(NCc2ccccc2)nc(Nc2ccc3ncsc3c2)n1` [Example 2, 4-(Benzothiazol-6-ylamino)-6-(benzylamino)-[1,3,5]triazin-2-ol], for which, on KDR [2], the half-maximal inhibitory concentration (IC50) was in the range of 1000 to 15000 nM; the “protein tyrosine kinase (KDR) inhibition, potency in words” value (shortened to “protein tyrosine kinase (KDR) inhibition”) is “less active than Examples 3 and 4”.
Consider `C[C@@H](Nc1nc(O)nc(Nc2ccc3ncsc3c2)n1)c1ccccc1` [Example 3, (R)-4-(Benzothiazol-6-ylamino)-6-(1-phenylethylamino)-[1,3,5]triazin-2-ol], for which, at KDR [1], the IC50 was in the range of 1000 to 15000 nM. On KDR [2], the 50% inhibitory concentration (IC50) was less than 1000 nM and the “protein tyrosine kinase (KDR) inhibition” value is recorded as “more potent than the corresponding S-enantiomer”.
Consider `C[C@H](Nc1nc(O)nc(Nc2ccc3ncsc3c2)n1)c1ccccc1` [Example 4, (S)-4-(Benzothiazol-6-ylamino)-6-(1-phenylethylamino)-[1,3,5]triazin-2-ol], for which, on KDR [2], the IC50 lay in the range of 1000 to 15000 nM.
For the compound `CC(C)(Nc1nc(O)nc(Nc2ccc3ncsc3c2)n1)c1ccccc1` [Example 5], the IC50 against KDR [1] is less than 1000 nM. In addition, on KDR [2], the IC50 was less than 1000 nM and the “protein tyrosine kinase (KDR) inhibition” value is given as “one of the most potent protein tyrosine kinase inhibitors tested”.
On to `CN(CCc1ccccn1)c1nc(O)nc(Nc2ccc3ncsc3c2)n1` [Example 6, 4-(Benzothiazol-6-ylamino)-6-[methyl-(2-pyridyl-2-ylethyl)amino]-[1,3,5]triazin-2-ol], for which the IC50 is 1000 to 15000 nM at KDR [1] and less than 1000 nM at KDR [2].
Regarding `CC(C)(Nc1nc(O)nc(Nc2ccc3ncccc3c2)n1)c1ccccc1` [Example 7, 4-(1-methyl-1-phenylethylamino)-6-(guinolin-6-ylamino)-[1,3,5]triazin-2-ol], the IC50 against KDR [1] was 1000 to 15000 nM; on KDR [2], less than 1000 nM.
With `Oc1nc(Nc2ccc3ncsc3c2)nc(N2CCCC2c2ccccc2)n1` (stereo not shown) [Example 8, 4-(Benzothiazol-6-ylamino)-6-(2-phenyl-pyrrolidin-1-yl)-[1,3,5]triazin-2-ol], the IC50 against KDR [1] is 1000 to 15000 nM; at KDR [2], less than 1000 nM.
`Oc1nc(Nc2ccc3ncsc3c2)nc(N2CCSC(c3ccccc3)C2)n1` (stereo not shown) [Example 9, 4-(Benzothiazol-6-ylamino)-6-(2-phenyl-thiomorpholin-4-yl)-[1,3,5]triazin-2-ol]: at KDR [1], the IC50 is 1000 to 15000 nM. Further, on KDR [2], the concentration for half-maximal inhibition (IC50) is less than 1000 nM and the “protein tyrosine kinase (KDR) inhibition” value was “potent inhibitors”.
`Oc1nc(Nc2ccc3ncsc3c2)nc(N2CCSCC2c2ccccc2)n1` (stereo not shown) [Example 10, 4-(Benzothiazol-6-ylamino)-6-(3-phenyl-thiomorpholin-4-yl)-[1,3,5]triazin-2-ol]: the IC50 against KDR [1] was 1000 to 15000 nM. Besides, on KDR [2], the IC50 was less than 1000 nM and the “protein tyrosine kinase (KDR) inhibition” value is reported as “potent inhibitors”.
Consider `CN(c1ccc2cn[nH]c2c1)c1nc(O)nc(Nc2ccc3ncsc3c2)n1` [Example 11], for which the IC50 against KDR [1] was 1000 to 15000 nM; on KDR [2] it was less than 1000 nM.
In the same order, the values of `CC(C)(Nc1nc(NO)nc(Nc2ccc3ncsc3c2)n1)c1ccccc1` [Example 14] are 1000 to 15000 nM and less than 1000 nM.
Regarding `CC(C)(Nc1nc(N)nc(Nc2ccc3ncsc3c2)n1)c1ccccc1` [Example 15, N-(Benzothiazol-6-yl)-N′-(1-methyl-1-phenylethyl)-[1,3,5]triazine-2,4,6-triamine], on KDR [2], the 50% inhibitory concentration (IC50) was in the range of 1000 to 15000 nM.
With `CC(C)(Nc1ncnc(Nc2ccc3ncsc3c2)n1)c1ccccc1` [Example 16, N-(Benzothiazol-6-yl)-N′-(1-methyl-1-phenylethyl)-[1,3,5]triazine-2,4-diamine], the IC50 on KDR [2] is 1000 to 15000 nM.
As for `COc1nc(Nc2ccc3ncsc3c2)nc(NC(C)(C)c2ccccc2)n1` [Example 17, N-(Benzothiazol-6-yl)-6-methoxy-N′-(1-methyl-1-1-phenylethyl)-[1,3,5]triazine-2,4-diamine], the IC50 on KDR [2] is 1000 to 15000 nM.
As for `CC(C)(Nc1nc(Nc2ccc3ncsc3c2)nc(OCc2ccccc2)n1)c1ccccc1` [Example 18, N-(Benzothiazol-6-yl)-6-benzyloxy-N′-(1-methyl-1-phenylethyl)-[1,3,5]triazine-2,4-diamine], the IC50 at KDR [2] is 1000 to 15000 nM.
